Source: ChEMBL document CHEMBL3352787, “Lipid-lowering effects of farnesylquinone and related analogues from the marine-derived Streptomyces nitrosporeus” (Bioorg Med Chem Lett, 2014)
The source made the active and inactive calls. The rule behind the calls is not given here.

Key:
HepG2 [1] = experiment: Lipid-lowering effect in human HepG2 cells assessed as reduction in oleic acid-induced lipid accumulation at 1 uM after 6 hrs by oil-red O staining based spectrophotometry; type: functional, cell-based
HepG2 [2] = experiment: Increase in CPT1 gene expression in human HepG2 cells at 1 uM by quantitative real time PCR method; type: functional, cell-based
HepG2 [3] = experiment: Increase in PGC-1alpha protein expression in human HepG2 cells at 1 to 10 uM by Western blotting method; type: functional, cell-based
HepG2 [4] = experiment: Increase in MCD1 gene expression in human HepG2 cells at 1 uM by quantitative real time PCR method; type: functional, cell-based
HepG2 [5] = experiment: Inhibition of ACC gene expression in human HepG2 cells at 1 uM by quantitative real time PCR method; type: functional, cell-based
HepG2 [6] = experiment: Inhibition of FAS gene expression in human HepG2 cells at 1 uM by quantitative real time PCR method; type: functional, cell-based
HepG2 [7] = experiment: Increase in ACOX1 gene expression in human HepG2 cells at 1 uM by quantitative real time PCR method; type: functional, cell-based
HepG2 [8] = experiment: Increase in PPARalpha gene expression in human HepG2 cells at 1 uM by quantitative real time PCR method; type: functional, cell-based
HepG2 [9] = experiment: Lipid-lowering effect in human HepG2 cells assessed as reduction in oleic acid-induced triglyceride accumulation at 1 and 10 uM after 24 hrs by oil-red O staining based spectrophotometry; type: functional, cell-based
HepG2 [10] = experiment: Increase in PPARalpha protein expression in human HepG2 cells at 1 to 10 uM by Western blotting method; type: functional, cell-based
HepG2 [11] = experiment: Inhibition of HMGCR gene expression in human HepG2 cells at 1 uM by quantitative real time PCR method; type: functional, cell-based
HepG2 [12] = experiment: Lipid-lowering effect in human HepG2 cells assessed as reduction in oleic acid-induced neutral lipid accumulation at 1 and 10 uM after 24 hrs by oil-red O staining based spectrophotometry; type: functional, cell-based
HepG2 [13] = experiment: Increase in CYP7A1 gene expression in human HepG2 cells at 1 uM by quantitative real time PCR method; type: functional, cell-based
HepG2 [14] = experiment: Lipid-lowering effect in human HepG2 cells assessed as reduction in oleic acid-induced total cholesterol accumulation at 10 uM in presence of 10 uM PPARalpha antagonist MK886 by oil-red O staining based spectrophotometry; type: functional, cell-based
[15] = target: T1, Peroxisome proliferator-activated receptor alpha (Homo sapiens) (UniProt Q07869); experiment: Activation of PPARalpha transactivation in human HepG2 cells assessed as increase in transcriptional activity at 0.1 to 10 uM by luciferase reporter gene assay; type: cell-based
T1 sequence (whole entry): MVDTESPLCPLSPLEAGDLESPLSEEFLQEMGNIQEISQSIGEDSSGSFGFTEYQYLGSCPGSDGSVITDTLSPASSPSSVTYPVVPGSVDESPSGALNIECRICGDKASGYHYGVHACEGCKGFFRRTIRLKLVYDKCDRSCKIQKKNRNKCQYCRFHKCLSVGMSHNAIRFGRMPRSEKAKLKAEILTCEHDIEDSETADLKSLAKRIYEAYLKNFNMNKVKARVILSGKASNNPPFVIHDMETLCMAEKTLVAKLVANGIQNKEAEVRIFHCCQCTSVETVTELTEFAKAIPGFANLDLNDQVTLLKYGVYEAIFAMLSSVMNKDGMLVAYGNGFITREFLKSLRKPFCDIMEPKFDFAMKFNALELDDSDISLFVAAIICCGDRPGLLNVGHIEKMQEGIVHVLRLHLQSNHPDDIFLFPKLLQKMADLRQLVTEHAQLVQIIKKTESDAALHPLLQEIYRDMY

HepG2 [16] = experiment: Lipid-lowering effect in human HepG2 cells assessed as reduction in oleic acid-induced total cholesterol accumulation at 1 and 10 uM after 24 hrs by oil-red O staining based spectrophotometry; type: functional, cell-based
HepG2 [17] = experiment: Lipid-lowering effect in human HepG2 cells assessed as reduction in oleic acid-induced triglyceride accumulation at 10 uM in presence of 10 uM PPARalpha antagonist MK886 by oil-red O staining based spectrophotometry; type: functional, cell-based
HepG2 [18] = experiment: Increase in CPT1 protein expression in human HepG2 cells at 1 to 10 uM by Western blotting method; type: functional, cell-based
HepG2 [19] = experiment: Effect on FAS protein expression in human HepG2 cells at 1 to 10 uM by Western blotting method; type: functional, cell-based
HepG2 [20] = experiment: Increase in PDK4 gene expression in human HepG2 cells at 1 uM by quantitative real time PCR method; type: functional, cell-based
HepG2 [21] = experiment: Lipid-lowering effect in human HepG2 cells assessed as reduction in oleic acid-induced total cholesterol accumulation at 10 uM after 24 hrs by oil-red O staining based spectrophotometry; type: functional, cell-based
HepG2 [22] = experiment: Lipid-lowering effect in human HepG2 cells assessed as reduction in oleic acid-induced triglyceride accumulation at 10 uM after 24 hrs by oil-red O staining based spectrophotometry; type: functional, cell-based

## O=C(O)CCCCC[C@H](O)c1ccccc1CO
HepG2 [1]
  inhibition: Active

## O=C(O)/C=C/C=C/c1ccccc1CO
HepG2 [1]
  inhibition: inactive

## O=C(O)CC/C=C/c1ccccc1CO
HepG2 [1]
  inhibition: inactive

## CC(C)=CCC/C(C)=C/CC/C(C)=C/CC1=CC(=O)C(C)=CC1=O
HepG2 [2]
  Activity: Active
HepG2 [3]
  Activity: Active
HepG2 [4]
  Activity: Active
HepG2 [5]
  inhibition: inactive
HepG2 [6]
  inhibition: inactive
HepG2 [7]
  Activity: Active
HepG2 [8]
  Activity: Active
HepG2 [9]
  inhibition: Dose-dependent effect
HepG2 [10]
  Activity: Active
HepG2 [11]
  inhibition: inactive
HepG2 [12]
  inhibition: Dose-dependent effect
HepG2 [13]
  Activity: Active
HepG2 [14]
  inhibition: inactive
HepG2 [1]
  inhibition: Active
[15]
  Activity: Dose-dependent effect
HepG2 [16]
  inhibition: Dose-dependent effect
HepG2 [17]
  inhibition: inactive
HepG2 [18]
  Activity: Active
HepG2 [19]
  Activity: inactive
HepG2 [20]
  Activity: Active

## CC[C@H](C)C(=O)O[C@H]1C[C@@H](C)C=C2C=C[C@H](C)[C@H](CC[C@@H]3C[C@@H](O)CC(=O)O3)[C@H]21
HepG2 [21]
  inhibition: Active
HepG2 [1]
  inhibition: Active
HepG2 [22]
  inhibition: Active

## O=C(O)C[C@H](O)CCc1ccccc1CO
HepG2 [1]
  inhibition: inactive

## O=C(O)CCCCc1ccccc1CO
HepG2 [1]
  inhibition: inactive

## COC(=O)CC/C=C/c1ccccc1CO
HepG2 [1]
  inhibition: inactive

## CC(C)=CCC/C(C)=C/CC/C(C)=C/C[C@@]12O[C@@H]1[C@H](O)C(C)=CC2=O
HepG2 [1]
  inhibition: inactive

## O=C(O)CCCC(=O)c1ccccc1CO
HepG2 [1]
  inhibition: inactive

## CC(C)=CCC/C(C)=C/CC/C(C)=C/Cc1cc(O)c(C)cc1O
HepG2 [1]
  inhibition: inactive
